Assays:
Experiment in all cases: NanoBRET target engagement (tracer displacement) in intact HEK293T cells
Format in all cases: cell-based
[1] = molecular target: T1, DYRK1B (Homo sapiens, UniProt Q9Y463)
T1 construct: Full-length, terminal NanoLuc fusion

[2] = molecular target: T2, CLK2 (Homo sapiens, UniProt P49760)
T2 construct: Full-length, terminal NanoLuc fusion

[3] = molecular target: T3, CLK1 (Homo sapiens, UniProt P49759)
T3 construct: Full-length, terminal NanoLuc fusion

[4] = molecular target: T4, DYRK1A (Homo sapiens, UniProt Q13627)
T4 construct: Full-length, terminal NanoLuc fusion

[5] = molecular target: T5, DYRK2 (Homo sapiens, UniProt Q92630)
T5 construct: Full-length, terminal NanoLuc fusion
T5 sequence (Q92630 1-601): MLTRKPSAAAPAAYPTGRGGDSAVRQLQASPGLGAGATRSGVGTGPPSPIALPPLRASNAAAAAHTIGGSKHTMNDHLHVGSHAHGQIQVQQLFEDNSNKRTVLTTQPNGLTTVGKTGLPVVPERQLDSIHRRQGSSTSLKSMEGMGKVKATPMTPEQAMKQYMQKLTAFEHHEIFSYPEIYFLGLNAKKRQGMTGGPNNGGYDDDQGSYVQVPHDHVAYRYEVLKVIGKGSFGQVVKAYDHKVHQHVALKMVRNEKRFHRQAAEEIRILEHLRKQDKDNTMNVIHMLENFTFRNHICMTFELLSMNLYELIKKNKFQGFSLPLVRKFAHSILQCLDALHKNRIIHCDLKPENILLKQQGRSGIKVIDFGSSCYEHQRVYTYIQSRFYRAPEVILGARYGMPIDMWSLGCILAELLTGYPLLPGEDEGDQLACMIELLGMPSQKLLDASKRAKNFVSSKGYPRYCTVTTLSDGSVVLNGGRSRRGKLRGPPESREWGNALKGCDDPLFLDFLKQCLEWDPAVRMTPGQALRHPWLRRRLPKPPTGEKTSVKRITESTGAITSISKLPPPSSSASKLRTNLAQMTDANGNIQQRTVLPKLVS

[6] = molecular target: T6, CLK4 (Homo sapiens, UniProt Q9HAZ1)
T6 construct: Full-length, terminal NanoLuc fusion
T6 sequence (Q9HAZ1 whole entry, the tested form may be a part): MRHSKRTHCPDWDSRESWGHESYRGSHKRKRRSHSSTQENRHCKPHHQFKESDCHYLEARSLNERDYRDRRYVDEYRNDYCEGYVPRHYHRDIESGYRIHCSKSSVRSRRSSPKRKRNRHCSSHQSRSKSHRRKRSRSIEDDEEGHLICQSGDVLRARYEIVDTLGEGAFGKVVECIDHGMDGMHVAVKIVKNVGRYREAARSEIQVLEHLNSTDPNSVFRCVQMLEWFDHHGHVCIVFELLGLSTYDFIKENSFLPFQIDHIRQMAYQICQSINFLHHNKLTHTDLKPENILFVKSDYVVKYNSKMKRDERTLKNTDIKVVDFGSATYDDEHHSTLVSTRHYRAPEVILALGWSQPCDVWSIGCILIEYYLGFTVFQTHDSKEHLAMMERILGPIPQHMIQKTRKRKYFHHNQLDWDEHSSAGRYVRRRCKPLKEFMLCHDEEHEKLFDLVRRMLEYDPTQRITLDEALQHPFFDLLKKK

T2 sequence (P49760 whole entry, the tested form may be a part): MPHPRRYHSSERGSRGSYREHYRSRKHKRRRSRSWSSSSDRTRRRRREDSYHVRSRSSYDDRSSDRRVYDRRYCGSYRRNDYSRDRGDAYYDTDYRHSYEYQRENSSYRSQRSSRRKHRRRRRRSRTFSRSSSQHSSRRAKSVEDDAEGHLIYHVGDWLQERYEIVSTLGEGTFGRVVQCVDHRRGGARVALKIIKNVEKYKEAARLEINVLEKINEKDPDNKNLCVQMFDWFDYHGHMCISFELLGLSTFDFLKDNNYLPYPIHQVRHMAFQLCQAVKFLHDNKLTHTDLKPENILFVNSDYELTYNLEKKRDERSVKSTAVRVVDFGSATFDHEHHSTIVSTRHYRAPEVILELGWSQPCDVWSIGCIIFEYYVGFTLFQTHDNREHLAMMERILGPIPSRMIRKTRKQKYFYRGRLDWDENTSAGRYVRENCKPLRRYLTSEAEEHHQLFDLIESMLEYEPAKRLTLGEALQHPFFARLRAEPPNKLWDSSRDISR
T1 sequence (Q9Y463 whole entry, the tested form may be a part): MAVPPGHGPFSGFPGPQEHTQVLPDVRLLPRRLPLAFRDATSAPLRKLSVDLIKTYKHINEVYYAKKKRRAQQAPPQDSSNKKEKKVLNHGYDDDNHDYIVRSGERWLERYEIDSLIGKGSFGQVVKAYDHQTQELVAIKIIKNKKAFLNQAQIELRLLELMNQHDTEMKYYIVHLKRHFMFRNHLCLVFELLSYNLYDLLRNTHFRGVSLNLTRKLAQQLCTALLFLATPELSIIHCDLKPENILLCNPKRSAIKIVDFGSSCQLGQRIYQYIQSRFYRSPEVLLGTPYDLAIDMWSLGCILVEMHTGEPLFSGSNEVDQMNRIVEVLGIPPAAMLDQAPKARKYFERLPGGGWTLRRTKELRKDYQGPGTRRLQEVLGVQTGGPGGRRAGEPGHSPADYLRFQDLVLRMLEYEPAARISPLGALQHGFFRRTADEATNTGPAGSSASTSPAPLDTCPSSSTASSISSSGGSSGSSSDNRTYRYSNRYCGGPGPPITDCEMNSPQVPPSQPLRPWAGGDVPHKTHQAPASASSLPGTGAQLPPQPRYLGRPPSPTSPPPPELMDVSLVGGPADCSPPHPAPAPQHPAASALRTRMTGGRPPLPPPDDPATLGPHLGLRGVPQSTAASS
T3 sequence (P49759 whole entry, the tested form may be a part): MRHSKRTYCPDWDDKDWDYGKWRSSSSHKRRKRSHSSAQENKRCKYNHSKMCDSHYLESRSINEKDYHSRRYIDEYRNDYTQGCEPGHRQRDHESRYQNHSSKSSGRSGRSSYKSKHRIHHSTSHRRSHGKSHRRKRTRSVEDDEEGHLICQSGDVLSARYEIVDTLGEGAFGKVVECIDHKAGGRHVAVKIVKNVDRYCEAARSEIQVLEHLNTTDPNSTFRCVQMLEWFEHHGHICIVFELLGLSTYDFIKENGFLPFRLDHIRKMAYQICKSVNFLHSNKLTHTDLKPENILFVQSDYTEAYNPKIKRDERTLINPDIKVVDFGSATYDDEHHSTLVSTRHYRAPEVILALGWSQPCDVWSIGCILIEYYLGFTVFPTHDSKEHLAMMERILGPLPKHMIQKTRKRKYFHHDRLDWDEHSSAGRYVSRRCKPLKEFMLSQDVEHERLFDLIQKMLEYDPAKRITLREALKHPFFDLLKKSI

EC50 [1]: 537 nM | EC50 [2]: 5000 nM | EC50 [3]: 299 nM | EC50 [4]: 3800 nM | EC50 [5]: 3400 nM | EC50 [6]: 119 nM
Compound: Cc1nccc(-c2cn(Cc3ccccc3)c3cnccc23)n1 [AZ-DYRK1B-33]

Reference: article PMC11846820, “Inhibition of DYRK1B BY C81 impedes inflammatory processes in leukocytes by reducing STAT3 activity” (Cellular and Molecular Life Sciences: CMLS, 2025)
